{"source": "patent US8765728B2", "about": "“[1,5]-diazocin derivatives” (MelliTech, priority 2009, dated 2014)"}
{"tested_on": "Min6 cell", "experiment": "Insulin secretion response of beta cell line to formula I compounds (insulin ELISA)", "assay_type": "cell-based", "conditions": "rank according to % increase versus control at most effective dose", "summary_of_the_method": "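After compound or vehicle exposure, Min6 cells were held 2 h in glucose-free medium and preincubated 30 min at 37° C in glucose-free KRBH (pH 7.4, 0.1% BSA). They were then incubated 30 min at 37° C in KRBH with varying glucose. Secreted insulin and acid-ethanol-extracted intracellular insulin were measured by ELISA.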"}
{"compound": "O=C1CCN(CC(O)c2ccc(OC(F)F)cc2)c2ccc3c(c2CN1C1CC1)OCCO3", "note": "(stereo not drawn) [Compound 149, 11-cyclopropyl-7-(2-(4-(difluoromethoxy)phenyl)-2-hydroxyethyl)-2,3,8,9,11,12-hexahydro-[1,4]dioxino[2′,3′:3,4]benzo[1,2-b][1,5]diazocin-10(7H)-one]", "Insulin secretion (Min6 cell) Range 1 to 5": "3 (3: 120-140% of control)"}
{"compound": "O=C1CCN(C(=O)Cc2ccc(F)cc2)c2ncccc2CN1CC1CC1", "note": "[Compound 150, 5-(cyclopropylmethyl)-1-(2-(4-fluorophenyl)acetyl)-2,3,5,6-tetrahydropyrido[2,3-b][1,5]diazocin-4(1H)-one]", "Insulin secretion (Min6 cell) Range 1 to 5": "4 (4: 140-170% of control)"}
{"compound": "Cc1cc(C(=O)N2CCC(=O)N(CC3CC3)Cc3cccnc32)on1", "note": "[Compound 151, 5-(cyclopropylmethyl)-1-(3-methylisoxazole-5-carbonyl)-2,3,5,6-tetrahydropyrido[2,3-b][1,5]diazocin-4(1H)-one]", "Insulin secretion (Min6 cell) Range 1 to 5": "1 (1: 90-110% of control)"}
{"compound": "O=C1CCN(C(=O)c2cnccn2)c2ncccc2CN1CC1CC1", "note": "[Compound 152, 5-(cyclopropylmethyl)-1-(pyrazine-2-carbonyl)-2,3,5,6-tetrahydropyrido[2,3-b][1,5]diazocin-4(1H)-one]", "Insulin secretion (Min6 cell) Range 1 to 5": "3 (3: 120-140% of control)"}
{"compound": "O=C1CCN(C(=O)c2cccnc2)c2ncccc2CN1CC1CC1", "note": "[Compound 153, 5-(cyclopropylmethyl)-1-nicotinoyl-2,3,5,6-tetrahydropyrido[2,3-b][1,5]diazocin-4(1H)-one]", "Insulin secretion (Min6 cell) Range 1 to 5": "3 (3: 120-140% of control)"}
{"compound": "CC(C)(C)C(O)CN1CCC(=O)N(C2CCCC2)Cc2cc(F)ccc21", "note": "(stereo not drawn) [Compound 154, 5-cyclopentyl-8-fluoro-1-(2-hydroxy-3,3-dimethylbutyl)-2,3,5,6-tetrahydrobenzo[b][1,5]diazocin-4(1H)-one]", "Insulin secretion (Min6 cell) Range 1 to 5": "1 (1: 90-110% of control)"}
{"compound": "COc1ccc2c(c1)CN(CC=C(C)C)C(=O)CCN2C(=O)c1ccno1", "note": "[Compound 156, 1-(isoxazole-5-carbonyl)-8-methoxy-5-(3-methylbut-2-enyl)-2,3,5,6-tetrahydrobenzo[b][1,5]diazocin-4(1H)-one]", "Insulin secretion (Min6 cell) Range 1 to 5": "1 (1: 90-110% of control)"}
{"compound": "CCC#CCN1Cc2ccccc2N(C(=O)c2ccno2)CCC1=O", "note": "[Compound 158, 1-(isoxazole-5-carbonyl)-5-(pent-2-ynyl)-2,3,5,6-tetrahydrobenzo[b][1,5]diazocin-4(1H)-one]", "Insulin secretion (Min6 cell) Range 1 to 5": "1 (1: 90-110% of control)"}
{"compound": "O=C1CCN(C(=O)c2ccno2)c2cc3c(cc2CN1CC1CC1)OCO3", "note": "[Compound 159, 9-(cyclopropylmethyl)-5-(isoxazol-5-ylcarbonyl)-6,7,9,10-tetrahydro[1,3]dioxolo[4,5-i][1,5]benzodiazocin-8(5H)-one]", "Insulin secretion (Min6 cell) Range 1 to 5": "1 (1: 90-110% of control)"}
{"compound": "COc1ccc2c(c1)CN(C1CC1)C(=O)CCN2C(=O)C1CCC1", "note": "[Compound 160, 1-(cyclobutanecarbonyl)-5-cyclopropyl-8-methoxy-2,3,5,6-tetrahydrobenzo[b][1,5]diazocin-4(1H)-one]", "Insulin secretion (Min6 cell) Range 1 to 5": "1 (1: 90-110% of control)"}
{"compound": "O=C1CCNc2cc3c(cc2CN1C1CCCC1)OCO3", "note": "[Compound 161, 9-cyclopentyl-6,7,9,10-tetrahydro[1,3]dioxolo[4,5-i][1,5]benzodiazocin-8(5H)-one]", "Insulin secretion (Min6 cell) Range 1 to 5": "1 (1: 90-110% of control)"}
{"compound": "CC(C)(C)OCC(O)CN1CCC(=O)N(C2CC2)Cc2cc3c(cc21)OCO3", "note": "(stereo not drawn) [Compound 162, 5-(3-tert-butoxy-2-hydroxypropyl)-9-cyclopropyl-6,7,9,10-tetrahydro[1,3]dioxolo[4,5-i][1,5]benzodiazocin-8(5H)-one]", "Insulin secretion (Min6 cell) Range 1 to 5": "1 (1: 90-110% of control)"}
{"compound": "CCN1Cc2ccccc2N(CC(C)O)CCC1=O", "note": "(stereo not drawn) [Compound 163, 5-ethyl-1-(2-hydroxypropyl)-2,3,5,6-tetrahydrobenzo[b][1,5]diazocin-4(1H)-one]", "Insulin secretion (Min6 cell) Range 1 to 5": "1 (1: 90-110% of control)"}
{"compound": "CCN1Cc2cc(F)ccc2N(CC(O)C(C)(C)C)CCC1=O", "note": "(stereo not drawn) [Compound 166, 5-ethyl-8-fluoro-1-(2-hydroxy-3,3-dimethylbutyl)-2,3,5,6-tetrahydrobenzo[b][1,5]diazocin-4(1H)-one]", "Insulin secretion (Min6 cell) Range 1 to 5": "1 (1: 90-110% of control)"}
{"compound": "C=CCOc1c(OC)ccc2c1CN(CC)C(=O)CCN2CC(O)COc1ccccc1", "note": "(stereo not drawn) [Compound 167, 7-(allyloxy)-5-ethyl-1-(2-hydroxy-3-phenoxypropyl)-8-methoxy-2,3,5,6-tetrahydrobenzo[b][1,5]diazocin-4(1H)-one]", "Insulin secretion (Min6 cell) Range 1 to 5": "2 (2: 110-120% of control)"}
{"compound": "O=C1CCN(C[C@@H](O)COCc2ccccc2)c2ccc(F)cc2CN1C1CCCC1", "note": "[Compound 168, (R)-1-(3-(benzyloxy)-2-hydroxypropyl)-5-cyclopentyl-8-fluoro-2,3,5,6-tetrahydrobenzo[b][1,5]diazocin-4(1H)-one]", "Insulin secretion (Min6 cell) Range 1 to 5": "4 (4: 140-170% of control)"}
{"compound": "C=CCOc1c(OC)ccc2c1CN(CC1CC1)C(=O)CCN2C(=O)c1ccno1", "note": "[Compound 169, 7-(allyloxy)-5-(cyclopropylmethyl)-1-(isoxazole-5-carbonyl)-8-methoxy-2,3,5,6-tetrahydrobenzo[b][1,5]diazocin-4(1H)-one]", "Insulin secretion (Min6 cell) Range 1 to 5": "4 (4: 140-170% of control)"}
{"compound": "ethyl 2-(4-oxo-1,2,3,4-tetrahydrobenzo[b][1,5]diazocin-5(6H)-yl)acetate [Compound 155]", "Insulin secretion (Min6 cell) Range 1 to 5": "1 (1: 90-110% of control)"}
